Results from patent US20180312473A1, “PHENAZINE DERIVATIVES AS ANTIMICROBIAL AGENTS” (priority 2015, published 2018).
In brackets after ≈: the same amount, converted by molar mass. Several values for one entry are separate records, joined by “and”; a condition that tells them apart may be missing. Equal entries are not always repeated. Where two headings read alike, the source gives them in different places. Marks after values point to notes of the source that are not given here.

How the values were obtained:
[1] = test system: MRSA-1 (methicillin-resistant Staphylococcus aureus clinical isolate); experiment: MIC assay (broth microdilution, CLSI); type: cell-based; settings: Staphylococcus aureus, MRSA, read-out: MIC, MRSA-1
[2] = test system: Staphylococcus epidermidis (ATCC 35984), MRSE; experiment: MIC assay (broth microdilution, CLSI); type: cell-based; settings: Staphylococcus epidermidis
[3] = test system: Enterococcus faecium (ATCC 700221), VRE; experiment: MIC assay (broth microdilution, CLSI); type: cell-based
[4] = test system: M. tuberculosis H37Ra (ATCC 25177); experiment: Mycobacterium tuberculosis MIC assay; type: cell-based
In short: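 Culture diluted to OD600 0.01 and exposed to compounds in 0.5% final DMSO, each compound tested in three rows. Growth read as OD600 absorbance. Data from three independent experiments.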

in vitro = type: cell-based; settings: human
HeLa cells = experiment: in vitro; type: cell-based
[5] = test system: MRSA-2 planktonic cells and biofilms; experiment: Calgary Biofilm Device (CBD) assay, MBC/MBEC; type: cell-based, Staphylococcus aureus; settings: for MBC: Staphylococcus aureus, MRSA
[6] = test system: MRSE (S. epidermidis ATCC 35984) planktonic cells and biofilms; experiment: Calgary Biofilm Device (CBD) assay, MBC/MBEC; type: cell-based, Staphylococcus epidermidis; settings: for MBC: Staphylococcus epidermidis
[7] = test system: VRE (E. faecium ATCC 700221) planktonic cells and biofilms; experiment: Calgary Biofilm Device (CBD) assay, MBC/MBEC; type: cell-based, Enterococcus faecium; settings: for MBC: Enterococcus
A. baumannii 19606 = experiment: MIC assay (broth microdilution, CLSI); type: cell-based, Acinetobacter baumannii; settings: Acinetobacter baumannii, 19606; read-out: A. baumannii 19606 MIC
[8] = Aqueous solubility under MIC assay conditions; type: physicochemical; settings: MIC assay media, 37 °C, aqueous buffer; read-out: [aq. soluble]
[9] = Spectrophotometric determination of dissociation constants (pKa); type: physicochemical; settings: UV-vis at varying pH, 1:1 water:methanol buffers
Experimental: Dissociation constants (pKa) for select analogues were determined by implementing UV-vis spectroscopy at varying pH values. Buffers were prepared using potassium phosphate monobasic (KH2PO4) and sodium phosphate dibasic (Na2HPO4) in a 1:1 solution of water:methanol to achieve a pH range of 3.78 to 10.94. Compounds were added from 10 mM stock solutions in dimethyl sulfoxide (12.5 μL) to 987.5 μL of each buffer to yield a final compound concentration of 125 μM. Full spectral scans were performed for each evaluated analogue at pH 3.78 and pH 10.94 from 300 to 800 nm to determine λmax values for the protonated phenol (HA; e.g., HP 2 below) and the deprotonated phenolate species (A^−; e.g., conjugate base of HP 2 below). The change in absorption at each determined λmax in relation to pH was then monitored in each buffer and then plotted as absorbance versus pH for each species. The pKa was first estimated by determining the pH of the point of intersection of the two linear curves as shown. The visual estimation was confirmed by plotting pH versus log [A^−/HA]. The resulting plot yielded a linear regression line with a Y-intercept corresponding to a calculated pKa value.

MRSA BAA-1707 = experiment: MIC assay (broth microdilution, CLSI); settings: Staphylococcus aureus, read-out: MIC, MRSA BAA-1707
[10] = test system: S. aureus clinical isolate SA 138; experiment: MIC assay (broth microdilution, CLSI); settings: Staphylococcus aureus, read-out: MIC, SA 138
[11] = test system: MRSA BAA-44 planktonic cells and biofilms; experiment: Calgary Biofilm Device (CBD) assay, MBC/MBEC; settings: Staphylococcus aureus, read-out: MRSA BAA-44 MBC
[12] = Table 2B, b lowest concentration tested
[13] = Table 2B, read-out: MIC, Staphylococcus epidermidis (ATCC 35984)
[14] = Table 7, read-out: MIC, MRSE 35984
[15] = Table 7, b lowest concentration tested, read-out: MIC, VRE 700221
[16] = Mycobacterium tuberculosis, Table 7, read-out: MIC, M. tuberculosis H37Ra
[17] = Table 5, a/b midpoint of 2-/4-fold range, read-out: MRSA-2 MBC
[18] = Table 8, a/b 2-/4-fold range in independent experiments, read-out: MRSA-2 MBC
[19] = Table 8, read-out: MRSE 35984 MBC
[20] = viable biofilm cell count from CBD peg

Compound | MIC [1, 12] [µM] | MIC ([1]; Table 11) [µM] | MIC [2, 13] [µM] | MIC [2, 14] [µM] | MIC [3, 15] [µM] | MIC [4, 16] [µM] | IC50 at 24 h (in vitro) [µM] | IC50 (HeLa cells; human, 24 h) [µM] | MBC [5, 17] [µM] | MBC [5, 18] [µM] | MBC ([6]; Table 5, read-out: MRSE MBC) [µM] | MBC [6, 19] [µM] | MIC (A. baumannii 19606) [µM] | solubility at 16 h [8] [µM] | pKa [9] | MIC (MRSA BAA-1707) [µM] | MIC [10] [µM] | MBC [11] [µM] | further results
Oc1ccc(I)c2nc3cc(Cl)c(Cl)cc3nc12 [Compound 12, 7,8-Dichloro-4-iodo-1-hydroxyphenazine] | 0.2 (≈ 0.0782 µg/mL) | 0.3 (≈ 0.117 µg/mL) | 0.78 (≈ 0.305 µg/mL) | 0.78 (≈ 0.305 µg/mL) | 3.13 | 3.13 | > 100 | > 100 | 25 (≈ 9.77 µg/mL) | 25 (≈ 9.77 µg/mL) | 9.38 (≈ 3.67 µg/mL) | 9.38 (≈ 3.67 µg/mL) | > 100 | 200 (≈ 78.2 µg/mL) | 7.70 | 0.15 (≈ 0.0586 µg/mL) | 0.59 (≈ 0.231 µg/mL) | 75 (≈ 29.3 µg/mL) | MIC ([2]; Table 2A, read-out: MIC, Staphylococcus epidermidis (ATCC 35984)): 0.78 µM (≈ 0.305 µg/mL); MIC ([3]; Enterococcus faecium, read-out: MIC, Enterococcus faecium (ATCC 700221), Table 2B, b lowest concentration tested): 3.13 µM; MIC ([3]; read-out: MIC, VRE 700221, Table 7, b lowest concentration tested): 3.13 to 6.25 µM; MIC ([4]; Mycobacterium tuberculosis, 168 h, read-out: Mtb MIC): 3.13 µM; MIC ([4]; Mycobacterium tuberculosis, read-out: MIC, M. tuberculosis): ~1 µg/mL; MBC ([5]; Table 4, read-out: MBC, MRSA-2): 25 µM (≈ 9.77 µg/mL); MRSE MBEC ([6]; Table 5): 75 µM; MBC ([7]; read-out: VRE 700221 MBC): 3.13 µM (≈ 1.22 µg/mL)
Oc1c(Br)cc(I)c2nc3cc(Cl)c(Cl)cc3nc12 [Compound 14, 2-bromo-7,8-dichloro-4-iodo-1-hydroxyphenazine] | 0.1 (≈ 0.047 µg/mL) | 0.1 (≈ 0.047 µg/mL) | 3.13 (≈ 1.47 µg/mL) | 3.13 (≈ 1.47 µg/mL) | 0.1 | 12.5 | > 50 | > 50 | 3.13 (≈ 1.47 µg/mL) | 3.13 (≈ 1.47 µg/mL) | 1.56 (≈ 0.733 µg/mL) | 1.56 (≈ 0.733 µg/mL) | > 100 | 200 (≈ 94 µg/mL) | 6.95 | 0.3 (≈ 0.141 µg/mL) | 0.59 (≈ 0.277 µg/mL) | 12.5 (≈ 5.87 µg/mL) | MIC ([3]; Enterococcus faecium, Table 2A, read-out: MIC, Enterococcus faecium (ATCC 700221)): < 0.1 µM; MIC ([3]; Enterococcus faecium, Table 2B, b lowest concentration tested, read-out: MIC, Enterococcus faecium (ATCC 700221)): 0.1 µM; MIC, VRE 700221 ([3]; Table 7, b lowest concentration tested): 0.10^b μM; MIC ([3]; read-out: MIC, VRE): 0.05 µg/mL; MIC ([4]; Mycobacterium tuberculosis, 168 h, M. tuberculosis H37Ra, 7 days, read-out: Mtb MIC): 12.5 µM; MIC ([4]; Table 7, read-out: MIC, M. tuberculosis H37Ra): 12.5 µM; HeLa cytotoxicity at 50 μM (HeLa cells): no cytotoxicity was observed; HeLa cytotoxicity at 50 μM (HeLa cells; human, 24 h, 50 μM): No HeLa cell death; HeLa cell death at 100 μM (HeLa cells; human, 24 h, 100 μM): ~70%; persister cells eradicated within MRSA biofilms at the MBEC [5, 20]: > 99.9%; persister cells eradicated within MRSA-2 biofilms at the MBEC [5, 20]: > 3 log; MRSE MBEC ([6]; Table 5, listed as 214): 1.56 μM and 1.56/1.56 μM; MBC ([7]; Table 5, c lowest concentration tested, read-out: VRE MBC): 0.2 µM (≈ 0.094 µg/mL); MBC ([7]; Table 8, c lowest concentration tested, read-out: VRE 700221 MBC): 0.2 µM (≈ 0.094 µg/mL); VRE MBEC ([7]; Table 5, c lowest concentration tested, listed as 214): 0.20 μM and 0.20^c/0.20^c μM
